# Experimental data from patent publication US11807644B2 (PMV Pharmaceuticals, Inc., priority 2020, dated 2023).
# Biological target: T1, recombinant His-tag Y220C p53 DBD protein (Homo sapiens, UniProt P04637, Y220C)
# T1 construct: recombinant His-tag Y220C p53 DBD protein (amino acids #˜94-312)
# Experiment: In vitro DNA binding activity assay (TR-FRET): binding of His-tag Y220C p53 DBD to biotin-labeled consensus DNA
# Type: biochemical
# Conditions: for Y220C SC150 (μM): SC150 = concentration to increase DNA binding by […], His-tag Y220C p53 DBD, biotin-labeled consensus DNA; for SC150 (μM): concentration to increase DNA binding by […], incubated at either 27° C. or 29° C. for 60 min
SMILES,Y220C SC150 (μM),SC150 (μM)
"CN1CC[C@@H](Nc2cccc3c2cc(-c2nc(CNC(=O)C4CC4)no2)n3CC(F)(F)F)[C@@H](F)C1 (racemic) [Compound 275B, (+/−)-N-{[5-(4-{[(3R,4S)-3-fluoro-1-methylpiperidin-4-yl]amino}-1-(2,2,2-trifluoroethyl)-1H-indol-2-yl)-1,2,4-oxadiazol-3-yl]methyl}cyclopropanecarboxamide]",* (* = 0 μM ≤ SC150 < 0.1 μM),
CC(C)(C)n1cc(C(=O)NCc2nc(-c3cc4c(N[C@H]5CCCNC5)cccc4n3CC(F)(F)F)no2)cn1 [Compound 353B],* (* = 0 μM ≤ SC150 < 0.1 μM),
"CN1CC[C@@H](Nc2cccc3c2cc(-c2noc(CNC(=O)[C@H]4C[C@@H]4C#N)n2)n3CC(F)(F)F)[C@@H](F)C1 (racemic) [Compound 193B, (1RS,2RS)-2-cyano-N-{[3-(4-{[(3S,4R)-3-fluoro-1-methylpiperidin-4-yl]amino}-1-(2,2,2-trifluoroethyl)-1H-indol-2-yl)-1,2,4-oxadiazol-5-yl]methyl}cyclopropane-1-carboxamide]",* (* = 0 μM ≤ SC150 < 0.1 μM),
"CN1CCC(Nc2cccc3c2cc(-c2nnc(CNC(=O)c4cccc(CN5CCOCC5)c4)s2)n3CC(F)(F)F)CC1 [Compound 46B, N-[(5-{4-[(1-methylpiperidin-4-yl)amino]-1-(2,2,2-trifluoroethyl)-1H-indol-2-yl}-1,3,4-thiadiazol-2-yl)methyl]-3-[(morpholin-4-yl)methyl]benzamide]",* (* = 0 μM ≤ SC150 < 0.1 μM),
"O=S1(=O)CCC(Nc2cccc3c2cc(-c2ccc(Cl)cc2)n3CC(F)(F)F)CC1 [Compound 14A, 4-{[2-(4-chlorophenyl)-1-(2,2,2-trifluoroethyl)-1H-indol-4-yl]amino}-1λ^6-thiane-1,1-dione]",,++++ (++++ = 10 μM ≤ SC150 < 35 μM)
"O=C(NCc1nc(-c2cc3c(NC4CCS(=O)(=O)CC4)cccc3n2CC(F)(F)F)no1)C1CC1 [Compound 162B, N-[(3-{4-[(1,1-dioxo-1λ^6-thian-4-yl)amino]-1-(2,2,2-trifluoroethyl)-1H-indol-2-yl}-1,2,4-oxadiazol-5-yl)methyl]cyclopropanecarboxamide]",* (* = 0 μM ≤ SC150 < 0.1 μM),
"NCc1ccc(-c2cc3c(NC4CCS(=O)(=O)CC4)cccc3n2CC(F)(F)F)cc1 [Compound 2A, 4-({2-[4-(aminomethyl)phenyl]-1-(2,2,2-trifluoroethyl)-1H-indol-4-yl}amino)-1λ^6-thiane-1,1-dione]",,+++ (+++ = 5 μM ≤ SC150 < 10 μM)
"CC(C)C(=O)NCc1nnc(-c2cc3c(NC4CCN(C)CC4)cccc3n2CC(F)(F)F)s1 [Compound 57B, 2-methyl-N-[(5-{4-[(1-methylpiperidin-4-yl)amino]-1-(2,2,2-trifluoroethyl)-1H-indol-2-yl}-1,3,4-thiadiazol-2-yl)methyl]propanamide]",** (** = 0.1 μM ≤ SC150 < 0.5 μM),
"CC1(n2ccc(C(=O)NCc3nc(-c4cc5c(N[C@@H]6CNCC[C@@H]6F)cccc5n4CC(F)(F)F)no3)c2)CCOCC1 [Compound 420B, N-{[3-(4-{[(3R,4S)-4-fluoropiperidin-3-yl]amino}-1-(2,2,2-trifluoroethyl)-1H-indol-2-yl)-1,2,4-oxadiazol-5-yl]methyl}-1-(4-methyloxan-4-yl)-1H-pyrrole-3-carboxamide]",* (* = 0 μM ≤ SC150 < 0.1 μM),
"COCCN1CC[C@@H](Nc2cccc3c2cc(-c2noc(CNC(=O)c4ccn(C(C)(C)C)c4)n2)n3CC(F)(F)F)[C@@H](F)C1 [Compound 337B, 1-tert-butyl-N-{[3-(4-{[(3S,4R)-3-fluoro-1-(2-methoxyethyl)piperidin-4-yl]amino}-1-(2,2,2-trifluoroethyl)-1H-indol-2-yl)-1,2,4-oxadiazol-5-yl]methyl}-1H-pyrrole-3-carboxamide]",* (* = 0 μM ≤ SC150 < 0.1 μM),
"CN1CCC(Nc2cccc3c2cc(-c2noc(CNC(=O)c4cnn(C)c4)n2)n3CC(F)(F)F)CC1 [Compound 154B, 1-methyl-N-[(3-{4-[(1-methylpiperidin-4-yl)amino]-1-(2,2,2-trifluoroethyl)-1H-indol-2-yl}-1,2,4-oxadiazol-5-yl)methyl]-1H-pyrazole-4-carboxamide]",* (* = 0 μM ≤ SC150 < 0.1 μM),
"COCC1(c2ccc(C(=O)NCc3nc(-c4cc5c(N[C@@H]6CCN(C)C[C@@H]6F)cccc5n4CC(F)(F)F)no3)s2)CC1 [Compound 483B, N-{[3-(4-{[(3S,4R)-3-fluoro-1-methylpiperidin-4-yl]amino}-1-(2,2,2-trifluoroethyl)-1H-indol-2-yl)-1,2,4-oxadiazol-5-yl]methyl}-5-[1-(methoxymethyl)cyclopropyl]thiophene-2-carboxamide]",* (* = 0 μM ≤ SC150 < 0.1 μM),
"CN1CC[C@H](Nc2cccc3c2cc(-c2nnc(CNC(=O)C4CCCC4)s2)n3CC(F)(F)F)[C@H](F)C1 (racemic) [Compound 29B, (+/−)-N-{[5-(4-{[(3R,4S)-3-fluoro-1-methylpiperidin-4-yl]amino}-1-(2,2,2-trifluoroethyl)-1H-indol-2-yl)-1,3,4-thiadiazol-2-yl]methyl}cyclopentanecarboxamide]",** (** = 0.1 μM ≤ SC150 < 0.5 μM),
"CN1CCC(Nc2cccc3c2cc(-c2noc(CNC(=O)c4ccccc4)n2)n3CC(F)(F)F)CC1 [Compound 144B, N-[(3-{4-[(1-methylpiperidin-4-yl)amino]-1-(2,2,2-trifluoroethyl)-1H-indol-2-yl}-1,2,4-oxadiazol-5-yl)methyl]benzamide]",* (* = 0 μM ≤ SC150 < 0.1 μM),
"CCN1CC[C@@H](Nc2cccc3c2cc(-c2noc(CNC(=O)c4cn(C(C)(C)C)cn4)n2)n3CC(F)(F)F)[C@@H](F)C1 [Compound 305B, 1-tert-butyl-N-{[3-(4-{[(3S,4R)-1-ethyl-3-fluoropiperidin-4-yl]amino}-1-(2,2,2-trifluoroethyl)-1H-indol-2-yl)-1,2,4-oxadiazol-5-yl]methyl}-1H-imidazole-4-carboxamide]",* (* = 0 μM ≤ SC150 < 0.1 μM),
"CN1CC[C@@H](Nc2cccc3c2cc(-c2noc(CNC(=O)c4ccn(CCO)c4)n2)n3CC(F)(F)F)[C@@H](F)C1 [Compound 249B, N-{[3-(4-{[(3S,4R)-3-fluoro-1-methylpiperidin-4-yl]amino}-1-(2,2,2-trifluoroethyl)-1H-indol-2-yl)-1,2,4-oxadiazol-5-yl]methyl}-1-(2-hydroxyethyl)-1H-pyrrole-3-carboxamide]",* (* = 0 μM ≤ SC150 < 0.1 μM),
"CN1CC[C@@H](Nc2cccc3c2cc(-c2noc(CNC(=O)c4ccn(C5CCCC5OCCF)c4)n2)n3CC(F)(F)F)[C@@H](F)C1 (stereo in doubt) [Compound 381B, N-{[3-(4-{[(3S,4R)-3-fluoro-1-methylpiperidin-4-yl]amino}-1-(2,2,2-trifluoroethyl)-1H-indol-2-yl)-1,2,4-oxadiazol-5-yl]methyl}-1-[(1R,2R)-2-(2-fluoroethoxy)cyclopentyl]-1H-pyrrole-3-carboxamide]",* (* = 0 μM ≤ SC150 < 0.1 μM),
"CN1CCC(Nc2cccc3c2cc(-c2nnc(CNC(=O)c4ccc(CN5CCOCC5)cc4)s2)n3CC(F)(F)F)CC1 [Compound 45B, N-[(5-{4-[(1-methylpiperidin-4-yl)amino]-1-(2,2,2-trifluoroethyl)-1H-indol-2-yl}-1,3,4-thiadiazol-2-yl)methyl]-4-[(morpholin-4-yl)methyl]benzamide]",* (* = 0 μM ≤ SC150 < 0.1 μM),
"CN1CC[C@@H](Nc2cccc3c2cc(-c2noc(CNC(=O)[C@@H]4C[C@H]4c4ccc(F)cc4)n2)n3CC(F)(F)F)[C@@H](F)C1 [Compound 210B, (1R,2R)-N-{[3-(4-{[(3S,4R)-3-fluoro-1-methylpiperidin-4-yl]amino}-1-(2,2,2-trifluoroethyl)-1H-indol-2-yl)-1,2,4-oxadiazol-5-yl]methyl}-2-(4-fluorophenyl)cyclopropane-1-carboxamide]",* (* = 0 μM ≤ SC150 < 0.1 μM),
"CN1CCC(Nc2cccc3c2cc(-c2cc(CNc4ccc(S(C)(=O)=O)cc4)[nH]n2)n3CC(F)(F)F)CC1 [Compound 22B, 2-(5-{[(4-methanesulfonylphenyl)amino]methyl}-1H-pyrazol-3-yl)-N-(1-methylpiperidin-4-yl)-1-(2,2,2-trifluoroethyl)-1H-indol-4-amine]",** (** = 0.1 μM ≤ SC150 < 0.5 μM),
"Cc1c(C(=O)NCc2nc(-c3cc4c(N[C@@H]5CCN(C)C[C@@H]5F)cccc4n3CC(F)(F)F)no2)cnn1C(C)(C)C [Compound 322B, 1-tert-butyl-N-{[3-(4-{[(3S,4R)-3-fluoro-1-methylpiperidin-4-yl]amino}-1-(2,2,2-trifluoroethyl)-1H-indol-2-yl)-1,2,4-oxadiazol-5-yl]methyl}-5-methyl-1H-pyrazole-4-carboxamide]",* (* = 0 μM ≤ SC150 < 0.1 μM),
"COCCn1ccc(C(=O)NCc2nc(-c3cc4c(N[C@@H]5CCN(C)C[C@@H]5F)cccc4n3CC(F)(F)F)no2)c1 [Compound 198B, N-{[3-(4-{[(3S,4R)-3-fluoro-1-methylpiperidin-4-yl]amino}-1-(2,2,2-trifluoroethyl)-1H-indol-2-yl)-1,2,4-oxadiazol-5-yl]methyl}-1-(2-methoxyethyl)-1H-pyrrole-3-carboxamide]",* (* = 0 μM ≤ SC150 < 0.1 μM),
"CN1CCC(Nc2cccc3c2cc(-c2noc(CNc4ccccc4)n2)n3CC(F)(F)F)CC1 [Compound 142B, N-(1-methylpiperidin-4-yl)-2-{5-[(phenylamino)methyl]-1,2,4-oxadiazol-3-yl}-1-(2,2,2-trifluoroethyl)-1H-indol-4-amine]",* (* = 0 μM ≤ SC150 < 0.1 μM),
